From ChEMBL document CHEMBL4627293, “Synthesis and in vitro activity of asymmetric indole-based bisamidine compounds against Gram-positive and Gram-negative pathogens” (2020)
In brackets after ≈: the same amount, converted by molar mass.

Key:
Format in all cases: functional
Klebsiella pneumoniae [1] = test: Potency index, ratio of MIC for 2-[4-[4-[6-(N,N-dimethylcarbamimidoyl)-1H-indol-2-yl]phenoxy]phenyl]-N,N-dimethyl-1H-indole-6-carboxamidine to MIC for test compound against Klebsiella pneumoniae 7
[2] = test system: Staphylococcus epidermidis; test: Antimicrobial activity against methicillin-susceptible Staphylococcus epidermidis ATCC 12228
Klebsiella pneumoniae [3] = test: Antimicrobial activity against NDM-1 producing Klebsiella pneumoniae ATCC BAA-2146
Providencia rettgeri = test: Antimicrobial activity against Providencia rettgeri ATCC 31052
Escherichia coli [4] = test: Potency index, ratio of MIC for 2-[4-[4-[6-(N,N-dimethylcarbamimidoyl)-1H-indol-2-yl]phenoxy]phenyl]-N,N-dimethyl-1H-indole-6-carboxamidine to MIC for test compound against Escherichia coli ATCC 25922
Enterococcus faecium = test: Antimicrobial activity against vancomycin-resistant Enterococcus faecium ATCC 700221
Proteus vulgaris = test: Antimicrobial activity against Proteus vulgaris ATCC 29905
Citrobacter freundii [5] = test: Antimicrobial activity against Citrobacter freundii ATCC 43864
Pseudomonas aeruginosa [6] = test: Antimicrobial activity against Pseudomonas aeruginosa ATCC 27853
[7] = test system: Acinetobacter calcoaceticus; test: Antimicrobial activity against Acinetobacter calcoaceticus ATCC 19606
Pseudomonas aeruginosa [8] = test: Potency index, ratio of MIC for 2-[4-[4-[6-(N,N-dimethylcarbamimidoyl)-1H-indol-2-yl]phenoxy]phenyl]-N,N-dimethyl-1H-indole-6-carboxamidine to MIC for test compound against Pseudomonas aeruginosa ATCC 27853
Staphylococcus aureus [9] = test: Antimicrobial activity against methicillin- resistant Staphylococcus aureus ATCC 33591
Escherichia coli [10] = test: Antimicrobial activity against Escherichia coli ATCC 25922
Staphylococcus aureus [11] = test: Antimicrobial activity against methicillin-sensitive Staphylococcus aureus ATCC 29213
Klebsiella pneumoniae [12] = test: Potency index, ratio of MIC for 2-[4-[4-[6-(N,N-dimethylcarbamimidoyl)-1H-indol-2-yl]phenoxy]phenyl]-N,N-dimethyl-1H-indole-6-carboxamidine to MIC for test compound against NDM-1 producing Klebsiella pneumoniae ATCC BAA-2146
Citrobacter freundii [13] = test: Potency index, ratio of MIC for 2-[4-[4-[6-(N,N-dimethylcarbamimidoyl)-1H-indol-2-yl]phenoxy]phenyl]-N,N-dimethyl-1H-indole-6-carboxamidine to MIC for test compound against Citrobacter freundii ATCC 43864
Klebsiella pneumoniae [14] = test: Potency index, ratio of MIC for 2-[4-[4-[6-(N,N-dimethylcarbamimidoyl)-1H-indol-2-yl]phenoxy]phenyl]-N,N-dimethyl-1H-indole-6-carboxamidine to MIC for test compound against ESBL-producing Klebsiella pneumoniae ATCC 700603
Enterococcus faecalis [15] = test: Antimicrobial activity against Vancomycin-sensitive Enterococcus faecalis ATCC 29212
Klebsiella pneumoniae [16] = test: Antimicrobial activity against Klebsiella pneumoniae 7
Enterococcus faecalis [17] = test: Antimicrobial activity against Vancomycin-resistant Enterococcus faecalis ATCC 51299
Klebsiella pneumoniae [18] = test: Antimicrobial activity against ESBL-producing Klebsiella pneumoniae ATCC 700603
Klebsiella pneumoniae [19] = test: Potency index, ratio of MIC for Levofloxacin to MIC for test compound against NDM-1 producing Klebsiella pneumoniae ATCC BAA-2146
Klebsiella aerogenes = test: Antimicrobial activity against Enterobacter aerogenes ATCC 45102

SMILES: CN(C)C(=N)c1ccc2cc(-c3ccc(Oc4ccc(-c5cc6ccc(C(=N)N(C)C)cc6[nH]5)nc4)cc3)[nH]c2c1
- Ratio (Klebsiella pneumoniae [1]): 4
- MIC [2]: 0.25 µg/mL (≈ 0.462 µM)
- MIC (Klebsiella pneumoniae [3]): 2 µg/mL (≈ 3.69 µM)
- MIC (Providencia rettgeri): 4 µg/mL (≈ 7.38 µM)
- Ratio (Escherichia coli [4]): 4
- MIC (Enterococcus faecium): 1 µg/mL (≈ 1.85 µM)
- MIC (Proteus vulgaris): 4 µg/mL (≈ 7.38 µM)
- MIC (Citrobacter freundii [5]): 2 µg/mL (≈ 3.69 µM)
- MIC (Pseudomonas aeruginosa [6]): 32 µg/mL (≈ 59.1 µM)
- MIC [7]: 64 µg/mL (≈ 118 µM)
- Ratio (Pseudomonas aeruginosa [8]): 4
- MIC (Staphylococcus aureus [9]): 0.125 µg/mL (≈ 0.231 µM)
- MIC (Escherichia coli [10]): 1 µg/mL (≈ 1.85 µM)
- MIC (Staphylococcus aureus [11]): 0.125 µg/mL (≈ 0.231 µM)
- Ratio (Klebsiella pneumoniae [12]): 4
- Ratio (Citrobacter freundii [13]): 4
- Ratio (Klebsiella pneumoniae [14]): 4
- MIC (Enterococcus faecalis [15]): 0.5 µg/mL (≈ 0.923 µM)
- MIC (Klebsiella pneumoniae [16]): 2 µg/mL (≈ 3.69 µM)
- MIC (Enterococcus faecalis [17]): 0.5 µg/mL (≈ 0.923 µM)
- MIC (Klebsiella pneumoniae [18]): 4 µg/mL (≈ 7.38 µM)

SMILES: COc1cc(Oc2ccc(-c3cc4ccc(C(=N)N(C)C)cc4[nH]3)cc2)ccc1-c1cc2ccc(C(=N)N(C)C)cc2[nH]1
- MIC [2]: 0.25 µg/mL (≈ 0.438 µM)
- MIC (Klebsiella pneumoniae [3]): 8 µg/mL (≈ 14 µM)
- MIC (Providencia rettgeri): 8 µg/mL (≈ 14 µM)
- MIC (Enterococcus faecium): 1 µg/mL (≈ 1.75 µM)
- MIC (Proteus vulgaris): 8 µg/mL (≈ 14 µM)
- Ratio (Klebsiella pneumoniae [19]): 16
- MIC (Citrobacter freundii [5]): 4 µg/mL (≈ 7.01 µM)
- MIC (Pseudomonas aeruginosa [6]): 128 µg/mL (≈ 224 µM)
- MIC [7]: 64 µg/mL (≈ 112 µM)
- MIC (Staphylococcus aureus [9]): 0.25 µg/mL (≈ 0.438 µM)
- MIC (Escherichia coli [10]): 2 µg/mL (≈ 3.5 µM)
- MIC (Staphylococcus aureus [11]): 0.25 µg/mL (≈ 0.438 µM)
- MIC (Enterococcus faecalis [15]): 0.5 µg/mL (≈ 0.876 µM)
- MIC (Klebsiella pneumoniae [16]): 8 µg/mL (≈ 14 µM)
- MIC (Enterococcus faecalis [17]): 0.5 µg/mL (≈ 0.876 µM)
- MIC (Klebsiella pneumoniae [18]): 8 µg/mL (≈ 14 µM)

SMILES: C/N=C(\NC)c1ccc2cc(-c3ccc(Oc4ccc(-c5cc6ccc(/C(=N\C)NC)cc6[nH]5)cc4)cc3)[nH]c2c1
- MIC (Klebsiella pneumoniae [3]): 128 µg/mL (≈ 237 µM)
- MIC (Providencia rettgeri): > 128 µg/mL
- MIC (Proteus vulgaris): > 128 µg/mL
- MIC (Citrobacter freundii [5]): > 128 µg/mL
- MIC (Pseudomonas aeruginosa [6]): > 128 µg/mL
- MIC (Klebsiella aerogenes): > 128 µg/mL
- MIC (Staphylococcus aureus [9]): 8 µg/mL (≈ 14.8 µM)
- MIC (Escherichia coli [10]): 64 µg/mL (≈ 118 µM)
- MIC (Staphylococcus aureus [11]): 8 µg/mL (≈ 14.8 µM)
- MIC (Enterococcus faecalis [15]): 8 µg/mL (≈ 14.8 µM)
- MIC (Enterococcus faecalis [17]): 16 µg/mL (≈ 29.6 µM)
- MIC (Klebsiella pneumoniae [18]): > 128 µg/mL

SMILES: C[C@H]1COc2c(N3CCN(C)CC3)c(F)cc3c(=O)c(C(=O)O)cn1c23.C[C@H]1COc2c(N3CCN(C)CC3)c(F)cc3c(=O)c(C(=O)O)cn1c23.O [LEVOFLOXACIN]
- MIC [2]: 0.25 µg/mL
- MIC (Klebsiella pneumoniae [3]): > 128 µg/mL
- MIC (Providencia rettgeri): 0.125 µg/mL
- MIC (Enterococcus faecium): 32 µg/mL
- MIC (Proteus vulgaris): 0.125 µg/mL
- MIC (Citrobacter freundii [5]): 0.03 µg/mL
- MIC (Klebsiella aerogenes): 0.25 µg/mL
- MIC [7]: 0.25 µg/mL
- MIC (Staphylococcus aureus [9]): 0.25 µg/mL
- MIC (Staphylococcus aureus [11]): 0.25 µg/mL
- MIC (Enterococcus faecalis [15]): 1 µg/mL
- MIC (Klebsiella pneumoniae [16]): 16 µg/mL
- MIC (Enterococcus faecalis [17]): 1 µg/mL
- MIC (Klebsiella pneumoniae [18]): 2 µg/mL
